What was measured:
[1] = target: Mitogen-activated protein kinase kinase kinase 9 (Homo sapiens, UniProt P80192)
[2] = target: T1, Serine/threonine-protein kinase RIO1 (Homo sapiens, UniProt Q9BRS2)
T1 sequence (Q9BRS2 whole entry): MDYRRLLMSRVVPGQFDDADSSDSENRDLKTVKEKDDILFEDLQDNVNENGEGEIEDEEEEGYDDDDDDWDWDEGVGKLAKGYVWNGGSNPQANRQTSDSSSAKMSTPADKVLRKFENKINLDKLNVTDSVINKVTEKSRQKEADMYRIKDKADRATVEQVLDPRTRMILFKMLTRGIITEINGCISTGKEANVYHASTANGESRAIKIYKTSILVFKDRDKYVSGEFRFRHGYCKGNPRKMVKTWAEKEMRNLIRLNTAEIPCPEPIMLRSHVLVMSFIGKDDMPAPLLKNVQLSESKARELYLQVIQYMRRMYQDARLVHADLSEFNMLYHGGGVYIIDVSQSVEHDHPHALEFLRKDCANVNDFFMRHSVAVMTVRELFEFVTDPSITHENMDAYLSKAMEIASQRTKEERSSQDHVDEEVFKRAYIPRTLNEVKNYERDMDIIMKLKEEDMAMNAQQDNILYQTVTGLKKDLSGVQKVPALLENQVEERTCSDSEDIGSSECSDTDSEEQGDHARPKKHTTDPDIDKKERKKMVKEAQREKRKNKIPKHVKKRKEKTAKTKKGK

[3] = target: T2, Serine/threonine-protein kinase RIO3 (Homo sapiens, UniProt O14730)
T2 sequence (O14730 whole entry): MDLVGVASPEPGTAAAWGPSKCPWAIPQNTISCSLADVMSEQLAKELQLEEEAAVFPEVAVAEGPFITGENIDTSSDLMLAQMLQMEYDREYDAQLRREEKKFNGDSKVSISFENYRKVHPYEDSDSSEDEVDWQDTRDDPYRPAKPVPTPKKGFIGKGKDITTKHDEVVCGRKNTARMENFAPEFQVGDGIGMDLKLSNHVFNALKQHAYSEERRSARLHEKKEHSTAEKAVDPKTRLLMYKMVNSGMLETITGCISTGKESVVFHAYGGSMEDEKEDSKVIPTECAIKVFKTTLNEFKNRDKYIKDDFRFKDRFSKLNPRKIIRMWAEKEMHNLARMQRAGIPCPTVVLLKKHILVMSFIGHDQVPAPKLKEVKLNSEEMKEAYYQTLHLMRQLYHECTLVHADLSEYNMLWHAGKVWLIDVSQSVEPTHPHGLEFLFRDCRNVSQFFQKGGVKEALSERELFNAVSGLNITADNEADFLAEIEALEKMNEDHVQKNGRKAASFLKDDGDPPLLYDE

[4] = target: Ribosomal protein S6 kinase alpha-2 (Homo sapiens, UniProt Q15349)
[5] = target: Mast/stem cell growth factor receptor Kit (Homo sapiens, UniProt P10721)
Mast/stem cell growth factor receptor Kit, sequence (P10721 whole entry): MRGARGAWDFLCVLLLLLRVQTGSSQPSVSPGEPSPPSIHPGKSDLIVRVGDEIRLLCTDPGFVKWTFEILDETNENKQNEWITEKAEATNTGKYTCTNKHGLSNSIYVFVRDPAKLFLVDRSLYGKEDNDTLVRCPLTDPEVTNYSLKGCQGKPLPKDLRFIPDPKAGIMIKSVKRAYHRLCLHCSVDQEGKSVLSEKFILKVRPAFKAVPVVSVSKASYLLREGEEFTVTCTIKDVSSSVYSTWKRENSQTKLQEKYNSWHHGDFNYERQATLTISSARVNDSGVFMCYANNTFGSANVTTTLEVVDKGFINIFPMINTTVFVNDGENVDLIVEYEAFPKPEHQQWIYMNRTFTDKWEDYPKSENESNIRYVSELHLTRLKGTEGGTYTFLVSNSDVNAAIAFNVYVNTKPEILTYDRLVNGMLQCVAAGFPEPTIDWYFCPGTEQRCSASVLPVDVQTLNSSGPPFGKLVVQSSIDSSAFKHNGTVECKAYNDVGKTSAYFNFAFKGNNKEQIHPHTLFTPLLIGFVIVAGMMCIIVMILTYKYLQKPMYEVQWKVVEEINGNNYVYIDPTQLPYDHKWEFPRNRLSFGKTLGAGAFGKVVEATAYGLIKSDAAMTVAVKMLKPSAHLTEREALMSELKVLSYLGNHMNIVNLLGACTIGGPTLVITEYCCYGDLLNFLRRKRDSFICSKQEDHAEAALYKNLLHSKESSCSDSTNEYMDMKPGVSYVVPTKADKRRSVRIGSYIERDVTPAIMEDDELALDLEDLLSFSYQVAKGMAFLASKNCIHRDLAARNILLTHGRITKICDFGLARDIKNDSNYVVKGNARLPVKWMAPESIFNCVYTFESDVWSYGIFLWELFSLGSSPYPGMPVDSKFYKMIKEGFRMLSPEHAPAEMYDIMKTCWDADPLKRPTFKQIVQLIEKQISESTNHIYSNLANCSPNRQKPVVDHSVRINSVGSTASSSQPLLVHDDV

[6] = target: Fibroblast growth factor receptor 1 (Homo sapiens, UniProt P11362)
Fibroblast growth factor receptor 1, sequence (P11362 whole entry): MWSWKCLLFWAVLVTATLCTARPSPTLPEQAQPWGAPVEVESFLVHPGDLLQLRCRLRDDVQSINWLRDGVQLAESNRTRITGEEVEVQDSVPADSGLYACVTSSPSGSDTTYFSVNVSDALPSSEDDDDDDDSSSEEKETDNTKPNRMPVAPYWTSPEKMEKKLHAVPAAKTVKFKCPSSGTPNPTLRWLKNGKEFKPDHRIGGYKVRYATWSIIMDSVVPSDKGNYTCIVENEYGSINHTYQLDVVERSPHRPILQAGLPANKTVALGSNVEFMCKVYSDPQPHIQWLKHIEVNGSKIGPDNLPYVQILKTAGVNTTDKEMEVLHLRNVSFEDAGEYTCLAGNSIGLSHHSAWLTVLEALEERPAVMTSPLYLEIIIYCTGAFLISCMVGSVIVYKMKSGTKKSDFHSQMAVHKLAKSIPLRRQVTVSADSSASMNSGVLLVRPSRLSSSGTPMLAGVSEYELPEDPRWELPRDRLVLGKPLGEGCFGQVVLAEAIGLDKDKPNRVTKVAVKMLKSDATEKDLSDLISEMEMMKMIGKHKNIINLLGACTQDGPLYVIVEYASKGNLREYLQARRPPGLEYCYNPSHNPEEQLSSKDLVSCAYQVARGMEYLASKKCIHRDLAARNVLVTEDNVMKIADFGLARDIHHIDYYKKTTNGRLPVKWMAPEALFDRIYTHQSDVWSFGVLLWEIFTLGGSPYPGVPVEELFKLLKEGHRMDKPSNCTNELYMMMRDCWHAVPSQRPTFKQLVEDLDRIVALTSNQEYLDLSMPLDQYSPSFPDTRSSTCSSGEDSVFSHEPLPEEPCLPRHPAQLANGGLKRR

[7] = target: Myosin light chain kinase, smooth muscle (Homo sapiens, UniProt Q15746)
Myosin light chain kinase, smooth muscle, sequence (Q15746 whole entry): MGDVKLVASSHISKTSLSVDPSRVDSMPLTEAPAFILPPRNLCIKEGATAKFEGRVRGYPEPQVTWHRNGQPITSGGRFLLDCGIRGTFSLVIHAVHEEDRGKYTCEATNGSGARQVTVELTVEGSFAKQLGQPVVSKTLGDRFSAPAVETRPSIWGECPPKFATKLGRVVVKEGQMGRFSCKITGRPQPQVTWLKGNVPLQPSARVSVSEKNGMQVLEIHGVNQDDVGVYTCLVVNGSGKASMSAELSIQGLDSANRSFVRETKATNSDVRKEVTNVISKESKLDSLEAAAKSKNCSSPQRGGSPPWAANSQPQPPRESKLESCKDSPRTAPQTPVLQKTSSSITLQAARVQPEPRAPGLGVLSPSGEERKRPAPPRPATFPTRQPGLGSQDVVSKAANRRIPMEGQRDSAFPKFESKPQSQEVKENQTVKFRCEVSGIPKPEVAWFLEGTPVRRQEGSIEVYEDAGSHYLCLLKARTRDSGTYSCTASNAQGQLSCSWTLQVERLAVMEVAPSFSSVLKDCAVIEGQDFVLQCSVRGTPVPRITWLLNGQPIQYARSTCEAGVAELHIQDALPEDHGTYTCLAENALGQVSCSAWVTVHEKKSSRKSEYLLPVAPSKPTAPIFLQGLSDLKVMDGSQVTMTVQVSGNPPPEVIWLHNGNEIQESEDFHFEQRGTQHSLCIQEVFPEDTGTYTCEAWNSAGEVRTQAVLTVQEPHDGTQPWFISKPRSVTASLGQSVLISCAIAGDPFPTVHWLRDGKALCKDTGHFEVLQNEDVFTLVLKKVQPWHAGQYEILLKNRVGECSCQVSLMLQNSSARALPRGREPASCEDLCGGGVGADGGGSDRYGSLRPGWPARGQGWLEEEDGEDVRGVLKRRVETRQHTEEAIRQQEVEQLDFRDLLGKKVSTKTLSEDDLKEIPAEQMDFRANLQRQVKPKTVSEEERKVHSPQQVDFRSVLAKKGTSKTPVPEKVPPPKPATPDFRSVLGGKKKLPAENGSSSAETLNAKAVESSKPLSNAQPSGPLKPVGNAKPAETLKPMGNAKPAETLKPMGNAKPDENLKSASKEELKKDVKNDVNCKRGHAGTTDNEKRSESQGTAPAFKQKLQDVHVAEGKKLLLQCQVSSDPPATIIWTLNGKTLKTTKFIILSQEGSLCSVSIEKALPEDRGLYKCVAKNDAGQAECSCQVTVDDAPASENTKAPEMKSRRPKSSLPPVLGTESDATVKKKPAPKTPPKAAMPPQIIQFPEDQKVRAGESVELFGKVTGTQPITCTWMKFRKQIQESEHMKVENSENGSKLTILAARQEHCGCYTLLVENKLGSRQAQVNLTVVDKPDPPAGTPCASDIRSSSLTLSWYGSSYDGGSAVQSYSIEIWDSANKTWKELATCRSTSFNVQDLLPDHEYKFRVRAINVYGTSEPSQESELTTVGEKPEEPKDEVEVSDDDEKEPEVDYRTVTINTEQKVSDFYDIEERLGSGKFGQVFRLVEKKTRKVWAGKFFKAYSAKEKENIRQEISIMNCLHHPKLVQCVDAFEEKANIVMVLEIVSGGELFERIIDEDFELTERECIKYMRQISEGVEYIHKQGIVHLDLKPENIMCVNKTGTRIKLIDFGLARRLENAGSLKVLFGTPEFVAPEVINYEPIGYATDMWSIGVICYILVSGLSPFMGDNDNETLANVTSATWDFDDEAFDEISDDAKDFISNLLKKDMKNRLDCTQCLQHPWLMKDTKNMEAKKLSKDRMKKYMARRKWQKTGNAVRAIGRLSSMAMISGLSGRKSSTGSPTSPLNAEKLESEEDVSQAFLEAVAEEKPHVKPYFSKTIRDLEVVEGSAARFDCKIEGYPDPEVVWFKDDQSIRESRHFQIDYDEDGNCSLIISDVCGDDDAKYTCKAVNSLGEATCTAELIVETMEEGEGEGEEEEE

[8] = target: T3, Serine/threonine-protein kinase BRSK2 (Homo sapiens, UniProt Q8IWQ3)
T3 sequence (Q8IWQ3 whole entry): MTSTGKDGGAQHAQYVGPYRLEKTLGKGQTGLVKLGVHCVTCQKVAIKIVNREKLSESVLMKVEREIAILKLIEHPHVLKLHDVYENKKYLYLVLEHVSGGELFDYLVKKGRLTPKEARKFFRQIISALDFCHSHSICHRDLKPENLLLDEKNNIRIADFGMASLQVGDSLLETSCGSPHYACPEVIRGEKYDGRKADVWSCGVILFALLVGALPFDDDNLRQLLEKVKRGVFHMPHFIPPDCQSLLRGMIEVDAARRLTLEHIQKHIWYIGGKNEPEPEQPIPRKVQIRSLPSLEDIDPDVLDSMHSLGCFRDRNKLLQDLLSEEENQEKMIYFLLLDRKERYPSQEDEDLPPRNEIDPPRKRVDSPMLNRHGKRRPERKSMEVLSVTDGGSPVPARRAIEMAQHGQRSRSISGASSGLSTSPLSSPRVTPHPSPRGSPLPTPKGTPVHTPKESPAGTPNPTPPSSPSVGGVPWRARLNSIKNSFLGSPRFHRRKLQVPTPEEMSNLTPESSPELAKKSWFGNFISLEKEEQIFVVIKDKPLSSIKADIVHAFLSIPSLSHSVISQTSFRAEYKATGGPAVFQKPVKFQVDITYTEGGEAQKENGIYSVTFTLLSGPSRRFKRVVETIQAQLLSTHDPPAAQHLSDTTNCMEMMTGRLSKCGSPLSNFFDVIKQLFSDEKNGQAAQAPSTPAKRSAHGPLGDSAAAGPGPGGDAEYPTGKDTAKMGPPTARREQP

Mitogen-activated protein kinase kinase kinase 9, sequence (P80192 whole entry): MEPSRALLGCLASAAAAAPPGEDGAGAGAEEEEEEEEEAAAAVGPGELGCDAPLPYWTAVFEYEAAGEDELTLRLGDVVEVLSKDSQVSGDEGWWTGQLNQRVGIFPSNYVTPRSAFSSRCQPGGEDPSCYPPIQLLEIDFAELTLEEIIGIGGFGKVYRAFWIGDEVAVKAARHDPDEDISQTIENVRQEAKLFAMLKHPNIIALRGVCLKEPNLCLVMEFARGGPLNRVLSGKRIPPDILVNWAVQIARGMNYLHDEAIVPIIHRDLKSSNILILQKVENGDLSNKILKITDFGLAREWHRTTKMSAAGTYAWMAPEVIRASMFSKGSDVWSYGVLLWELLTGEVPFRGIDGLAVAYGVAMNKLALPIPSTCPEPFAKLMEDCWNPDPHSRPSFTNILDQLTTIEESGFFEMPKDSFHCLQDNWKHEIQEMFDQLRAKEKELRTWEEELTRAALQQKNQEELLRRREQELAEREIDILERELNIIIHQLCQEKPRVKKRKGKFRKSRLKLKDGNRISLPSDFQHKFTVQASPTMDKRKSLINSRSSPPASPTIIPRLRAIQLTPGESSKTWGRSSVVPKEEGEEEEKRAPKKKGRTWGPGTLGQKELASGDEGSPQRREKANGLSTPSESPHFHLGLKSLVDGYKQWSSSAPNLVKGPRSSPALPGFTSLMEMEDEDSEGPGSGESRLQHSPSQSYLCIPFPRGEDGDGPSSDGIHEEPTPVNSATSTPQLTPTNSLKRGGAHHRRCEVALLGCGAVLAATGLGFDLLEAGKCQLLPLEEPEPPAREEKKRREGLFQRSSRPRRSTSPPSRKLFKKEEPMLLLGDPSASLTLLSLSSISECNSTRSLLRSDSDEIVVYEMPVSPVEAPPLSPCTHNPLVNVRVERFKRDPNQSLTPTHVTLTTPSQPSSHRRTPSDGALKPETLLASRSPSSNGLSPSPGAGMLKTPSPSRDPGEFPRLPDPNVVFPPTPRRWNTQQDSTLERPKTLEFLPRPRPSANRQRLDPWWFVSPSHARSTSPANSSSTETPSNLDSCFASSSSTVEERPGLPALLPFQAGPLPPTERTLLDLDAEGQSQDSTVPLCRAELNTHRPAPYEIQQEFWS

| SMILES | Kd [1] | Kd [2] | Kd [3] | Kd [4] | Kd [5] | Kd [6] | Kd [7] | Kd [8] |
| --- | --- | --- | --- | --- | --- | --- | --- | --- |
| COCC(=O)NC/C=C/c1ccc2ncnc(Nc3ccc(Oc4ccc(C)nc4)c(C)c3)c2c1 [CP-724714] | > 10 µM | > 10 µM | > 10 µM | > 10 µM | > 10 µM | > 10 µM | > 10 µM | > 10 µM |
| Nc1nc(Nc2ccc(S(N)(=O)=O)cc2)nn1C(=O)c1c(F)cccc1F [JNJ-7706621] | 3.6 µM |  | 1.2 µM | 0.41 µM |  |  |  | 2.7 µM |
| CCOc1cc2ncc(C#N)c(Nc3ccc(F)c(Cl)c3)c2cc1NC(=O)/C=C/CN(C)C [PELITINIB] | > 10 µM | > 10 µM | > 10 µM | > 10 µM | > 10 µM | > 10 µM | > 10 µM | > 10 µM |
| Oc1ccc(-c2nc(-c3ccncc3)c(-c3ccc(F)cc3)[nH]2)cc1 [SB-202190] | > 10 µM | > 10 µM | > 10 µM | > 10 µM | > 10 µM | > 10 µM | > 10 µM | > 10 µM |
| NC(=O)c1ccc(-c2nc(-c3ccc4c(c3)OCO4)c(-c3ccccn3)[nH]2)cc1 [SB-431542] | > 10 µM | > 10 µM | > 10 µM | > 10 µM | > 10 µM | > 10 µM | > 10 µM | > 10 µM |

Source: ChEMBL document CHEMBL1150977, “A quantitative analysis of kinase inhibitor selectivity” (Nat Biotechnol, 2008)
